Entries after “also recorded” stand apart in the source; their conditions may differ.
Tests used:
[1] = test system: surface-attached P. aeruginosa; assay: Image-based virulence (host killing) assay with amoeba host cells and calcein-AM; format: cell-based, Pseudomonas aeruginosa; conditions: for host-killing activity (host killing index): surface-attached wild-type P. aeruginosa in rich (PS:DB) medium, supplemented at 3 hours at 0.2%, assessed after 6 hours of growth, amoeba host cells
Procedure: P. aeruginosa cells were assayed using an image-based virulence assay as described previously (12, 50). P. aeruginosa strains were cultured in PS:DB, diluted 1:100 into 60×15 mm plastic petri dishes (Corning, Corning, N.Y.), cultured for 4 to 6 hours by shaking at 100 rpm, and harvested. Planktonic cells were assayed by transferring 10 μL of culture from the petri dish to a new petri dish, mixing with an equal volume of D. discoideum that were grown to an OD600 of 0.2-0.5, and immobilizing by placing an agar pad on top of the mixture (FIG. 11C). Agar pads were made using Bacto agar at a concentration of 1%, DB buffer, and 1 μM calcein acetoxymethyl (AM) ester (Molecular Probes, Eugene, Oreg.), and were cut into 1.5×1.5 cm squares (12, 50). Surface-attached cells were assayed by aspirating planktonic cells from the culture, washing with DB buffer to remove planktonic cells, mixing with an equal volume of D. discoideum, and immobilizing by placing an agar pad on top of the mixture (FIG. 11C) (50). The immobilized planktonic or surface-attached P. aeruginosa and D. discoideum were incubated at room temperature for 1 hour and imaged using fluorescence microscopy. The host killing index (12, 50) was computed as the average ratio of calcein-AM fluorescence to cell area in individual amoeba cells for 30 to 200 cells in each experiment.
Fluorescence microscopy to assess calcein-AM fluorescence was performed using a Nikon Eclipse Ti-E microscope (Nikon, Melville, N.Y.) containing Nikon 10× Plan Fluor Ph1 (0.3 NA) and 20×S Plan Fluor Nikon (0.45 NA) objectives, a Sola light engine (Lumencor, Beaverton, Oreg.), an LED-DA/FI/TX filter set (Semrock, Rochester, N.Y.) containing a 409/493/596 dichroic and 474/27 nm and 525/45 nm filters for excitation and emission, respectively, and a Hamamatsu Orca Flash 4.0 V2 camera (Hamamatsu, Bridgewater, N.J.). Images were acquired using Nikon NIS-Elements and analyzed using custom built software written previously (12) in Matlab (Mathworks, Natick, Mass.).
For experiments in which strains cultured in PS:DB were supplemented with individual carbon sources (FIG. 5A-D), pyruvic acid, citric acid, […], glycerol, or glucose was added to cultures at a final concentration of 0.2% at 3 hours following a 1:100 dilution from an overnight culture. Cultures were harvested after 1 additional hour of growth for measurements of fluorescence lifetime and NADH and NAD^+ concentrations. For experiments in which surface-attached strains that were cultured in PS:DB media were treated with antimycin A (FIG. 5E-F), 10 μM antimycin A dissolved in 0.1% ethanol, 0.1% ethanol, alone, or 10 μM antimycin A dissolved in 0.1% ethanol and 0.2% citric acid were added after 3 hours of growth following a 1:100 dilution from an overnight culture. Host killing was measured after an additional 1 to 3 hours of growth (total of 4 to 6 hours of growth).

P. aeruginosa = assay: Colorimetric enzyme-cycling assay of NADH and NAD+ concentrations; format: cell-based, Pseudomonas aeruginosa; conditions: for NADH/NAD+ ratio / total concentrations of NADH and NAD+ / change in NADH/NAD+ ratio / change in total NAD(H) production: surface-attached; for NADH/NAD+ ratio / total concentrations of NADH and NAD+: mid-exponential phase; for change in NADH/NAD+ ratio / change in total NAD(H) production: rich (PS:DB) medium, carbon source 0.2% added at 3 hours, harvested after 1 additional hour
Procedure: The concentrations of reduced and oxidized nicotinamide adenine dinucleotide (NADH, NAD^+) were measured using a colorimetric enzyme-cycling assay as described previously (45). P. aeruginosa strains were cultured overnight in PS:DB, diluted 1:100 into 60×15 mm plastic petri dishes (Corning, Corning, N.Y.) containing the same medium, and grown for 4 to 6 hours. Alternatively, strains were cultured overnight in minimal medium, diluted 1:100 into plastic petri dishes containing modified minimal medium with single carbon sources, and grown to an OD600 of 0.2. Cultures were harvested in a glove box chamber (Bel-Art, Wayne, N.J.) that had been vacuumed to remove air and flushed with nitrogen constantly throughout the experiment to prevent oxidation of NADH. Subsequent steps were performed and solutions were prepared in the glove box unless otherwise indicated. Solutions containing 0.05 to 1 μM of NADH (Sigma) or NAD^+ (Sigma) were included as calibration controls.
Planktonic cells were isolated from petri dishes, pelleted by centrifugation at 16,000×g for 1 min, the residual supernatant was discarded and the pellet was immediately resuspended in 0.2 M NaOH or HCl to extract NADH or NAD^+, respectively, as described previously (45, 46). Surface-attached cells were harvested by aspirating planktonic cells from petri dishes, washing with DB buffer or modified minimal medium with no carbon source for strains cultured in PS:DB or modified minimal medium A containing single carbon sources, respectively, adding 0.2 M NaOH or HCl, and scraping surfaces with a cell scraper (Sarstedt, Nümbrecht, Germany). As a control, the Δphz12 strain was cultured overnight in modified MOPS synthetic medium (46), diluted 1:100 in the same medium in culture tubes for 1 to 4 hours, pelleted by centrifugation, resuspended in 0.2 M NaOH or HCl, as described previously (46). The resuspensions in NaOH or HCl were neutralized using equal volume of 0.1 M HCl or NaOH, respectively, and portions were assayed for protein content, NADH, and NAD^+. Resuspensions were assayed for protein content using a BCA assay kit (ThermoFisher Scientific, Waltham, Mass.) using a 50:1 mixture of solutions A and B from the kit. Solutions were incubated at 37° C. for 30 min and measured for absorbance at 562 nm. Resuspensions that were not used for the BCA assay were normalized by protein content by diluting in Millipore-filtered water.
NADH and NAD^+ concentrations were determined by following the protocol described previously (45). Briefly, normalized resuspensions were centrifuged at 16,000×g for 10 minutes at 4° C. to remove cell debris and mixed with a reaction mixture containing 40 mM EDTA, 1 M bicine (Sigma), 4.2 mM 3-(4,5-dimethylthiazol-2-yl)-2,5-diphenyltetrazolium bromide (Sigma), 16.6 mM phenazine ethosulfate (Sigma), 1 mg/mL alcohol dehydrogenase (Sigma), and ethanol, and the absorbance at 570 nm of the solution was measured in a 96-well plate (Corning Corning, N.Y.) at 30° C. every 30 seconds for 30 minutes using a BioTek Synergy HTX reader (BioTek, Winooski, Vt.). The reaction mixture and the normalized resuspensions were aliquoted and mixed inside the glove box. The centrifugation and absorbance measurements were performed outside of the glove box. The absorbance per unit time was determined by fitting data on the initial velocity of enzyme activity, acquired between 2 to 10 minutes of the absorbance measurements. The absorbances per unit time for the NADH and NAD^+ calibration controls were linearly fit for the full range of calibration concentrations to establish a linear equation that relates the absorbance per unit time and NAD(H) concentration. The NAD(H) concentrations of the planktonic and surface-attached cell resuspensions were determined by inputting the respective absorbance per unit time fits of the samples into these equations. […]

[2] = planktonic cells, modified minimal medium, single carbon source at 0.2%
[3] = modified minimal medium, single carbon source at 0.2%

SMILES	effect on the earlier virulence induction by antimycin A ([1]; co-treatment at 3 hours with 0.2% citrate and 10 μM antimycin A in 0.1% ethanol, surface-attached)	host-killing activity (host killing index) [1]	NAD(H) concentration relative to glycerol (P. aeruginosa; [2])	NADH/NAD+ ratio relative to glycerol (P. aeruginosa; [2])	NADH/NAD+ ratio (P. aeruginosa; [3])	total concentrations of NADH and NAD+ (P. aeruginosa; [3])	change in NADH/NAD+ ratio (P. aeruginosa)	change in total NAD(H) production (P. aeruginosa)
O=C(O)CC(O)(CC(=O)O)C(=O)O [citrate]	inhibited	inhibited virulence; also recorded: abolished host-killing activity	slightly lower	slightly greater	increasing ratios	intermediate	greatest increases	greatest decreases; also recorded: decreased
OCC(O)CO [glycerol]	–	no effect on host-killing activity	–	–	increasing ratios	intermediate	smallest changes	relatively small impacts

— US20220287995A1, “COMPOSITIONS AND METHODS FOR INHIBITING BACTERIAL VIRULENCE AND FLIM-BASED DEVICE AND METHOD FOR ANTIBIOTIC SUSCEPTIBILITY TESTING” (THE REGENTS OF THE UNIVERSITY OF CALIFORNIA, priority 2019, published 2022)
